According to ChEMBL document CHEMBL1201862, “PubChem BioAssay data set” (2004):
Counter-ions that a name gives are not always drawn.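 Growth conditions: 96-well plates. Treatment: test compound, 48 hours, 5 concentrations. Analysis: linear interpolation between bracketing concentrations; unreached endpoints set to highest concentration. GI50 is the concentration that inhibits growth by half.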 Active and inactive are the calls of the source. No stated cut-off is given here; in the data, active = GI50 up to about 1.1 µM and inactive = higher.

How the values were obtained:
Assay in all cases: inhibition of tumour cell growth, NCI panel, 48 h
BT-549 = tested on: BT-549
CCRF-CEM = tested on: CCRF-CEM
DU-145 = tested on: DU-145
EKVX = tested on: EKVX
HCT-15 = tested on: HCT-15
IGROV-1 = tested on: IGROV-1
KM12 = tested on: KM12
MDA-MB-435 = tested on: MDA-MB-435
NCI-H226 = tested on: NCI-H226
NCI-H522 = tested on: NCI-H522
NCI/ADR-RES = tested on: NCI/ADR-RES
OVCAR-5 = tested on: OVCAR-5
RXF 393 = tested on: RXF 393
SF-268 = tested on: SF-268
SK-MEL-2 = tested on: SK-MEL-2
SNB-19 = tested on: SNB-19
SR = tested on: SR
TK-10 = tested on: TK-10
UACC-257 = tested on: UACC-257
UO-31 = tested on: UO-31

SMILES | GI50 (BT-549) | GI50 (CCRF-CEM) | GI50 (DU-145) | GI50 (EKVX) | GI50 (HCT-15) | GI50 (IGROV-1) | GI50 (KM12) | GI50 (MDA-MB-435) | GI50 (NCI-H226) | GI50 (NCI-H522) | GI50 (NCI/ADR-RES) | GI50 (OVCAR-5) | GI50 (RXF 393) | GI50 (SF-268) | GI50 (SK-MEL-2) | GI50 (SNB-19) | GI50 (SR) | GI50 (TK-10) | GI50 (UACC-257) | GI50 (UO-31)
CNc1ncnc(Sc2nc(N)nc3[nH]cnc23)c1[N+](=O)[O-] | 2.6 µM (inactive) | 0.084 µM (active) | 0.356 µM (active) | 3.08 µM (inactive) | 1.54 µM | 3.85 µM (inactive) | 2.64 µM (inactive) | 0.48 µM (active) | 5.7 µM (inactive) | 0.635 µM (active) | 0.427 µM (active) | 2.25 µM (inactive) | 0.45 µM (active) | 0.566 µM (active) | 0.634 µM (active) | 35.6 µM (inactive) | 0.1 µM (active) | 0.251 µM (active) | 1.54 µM (inactive) | 0.676 µM (active)
C[C@@H]1S[C@H](c2ccccc2F)N2Cc3ccccc3N=C12 | 31.3 µM (inactive) | 30.6 µM (inactive) | 33.7 µM (inactive) | 24.8 µM (inactive) | 28.5 µM | 33.5 µM (inactive) | 27.3 µM (inactive) | 23.5 µM (inactive) | 30.1 µM (inactive) | 19.2 µM (inactive) | 24.7 µM (inactive) | 28.2 µM (inactive) | 27.4 µM (inactive) | 28.6 µM (inactive) | 16.8 µM (inactive) | 30.6 µM (inactive) | 15.9 µM (inactive) | 36.7 µM (inactive) | 28.6 µM (inactive) | 17.1 µM (inactive)
Nc1n[n+]([O-])c2ccc(Cl)cc2[n+]1[O-] | 13.2 µM (inactive) | 22.4 µM (inactive) | 46.1 µM (inactive) | 32.2 µM (inactive) | 16.1 µM | 11.6 µM (inactive) | 16.1 µM (inactive) | 21.4 µM (inactive) | 23.1 µM (inactive) | 15.3 µM (inactive) | 36.3 µM (inactive) | 25.8 µM (inactive) | 18.4 µM (inactive) | 52.1 µM (inactive) | 31.7 µM (inactive) | 34.5 µM (inactive) | 32.5 µM (inactive) | 37.2 µM (inactive) | 17.9 µM (inactive) | 27.6 µM (inactive)
O=C1C(Br)=CC2(C=C1Br)CCNC1=C2C2=NCCc3c[nH]c(c32)C1=O | 0.212 µM (active) | 0.0198 µM (active) | 0.811 µM (active) | 0.231 µM (active) | 0.0605 µM | 0.153 µM (active) | 0.516 µM (active) | 0.102 µM (active) | 1.27 µM (inactive) | 0.0176 µM (active) | 0.164 µM (active) | 0.69 µM (active) | 0.0681 µM (active) | 0.347 µM (active) | 0.183 µM (active) | 1.41 µM (inactive) | 0.0431 µM (active) | 0.204 µM (active) | 0.101 µM (active) | 0.308 µM (active)
C/C(=N\NS(=O)(=O)c1ccc(C)cc1)C(CN(C)C)C(c1ccccc1)c1c(O)c2ccccc2oc1=O (stereo not given) | > 100 µM (inactive) | > 100 µM (inactive) | > 100 µM (inactive) | > 100 µM (inactive) | > 100 µM | > 100 µM (inactive) | > 100 µM (inactive) | > 100 µM (inactive) | > 100 µM (inactive) | > 100 µM (inactive) | > 100 µM (inactive) | > 100 µM (inactive) | 55.2 µM (inactive) | > 100 µM (inactive) | > 100 µM (inactive) | > 100 µM (inactive) | > 60 µM (inactive) | > 100 µM (inactive) | > 100 µM (inactive) | > 81.7 µM (inactive)
CC(=O)N(C)c1ccc(Nc2cc(C)nc3ccc4nc[nH]c4c23)cc1 [ACODAZOLE HYDROCHLORIDE] | 10 µM (inactive) | 3.01 µM (inactive) | 5.81 µM (inactive) | 18.7 µM (inactive) | 23 µM | 12.4 µM (inactive) | 7.96 µM (inactive) | 8.51 µM (inactive) | 6.27 µM (inactive) | 7.38 µM (inactive) | 156 µM (inactive) | 12.1 µM (inactive) | 9.25 µM (inactive) | 8.11 µM (inactive) | 10.8 µM (inactive) | 10.2 µM (inactive) | 3.29 µM (inactive) | 13.6 µM (inactive) | 12.7 µM (inactive) | 12.2 µM (inactive)
COc1ccc(-c2cc(-c3ccc(Nc4ccnc5cc(Cl)ccc45)cc3)nc(N)c2C#N)c2ccccc12 | > 100 µM (inactive) | > 100 µM (inactive) | > 100 µM (inactive) | > 100 µM (inactive) | > 100 µM | > 100 µM (inactive) | > 100 µM (inactive) | > 100 µM (inactive) | > 100 µM (inactive) | > 100 µM (inactive) | > 100 µM (inactive) | > 100 µM (inactive) | > 100 µM (inactive) | > 100 µM (inactive) | > 100 µM (inactive) | > 100 µM (inactive) | > 100 µM (inactive) | > 100 µM (inactive) | > 100 µM (inactive) | > 100 µM (inactive)
CO/N=C(\C)c1cccc(Nc2c3ccccc3nc3occc23)c1 | 18.1 µM (inactive) | 5.42 µM (inactive) | 18.9 µM (inactive) | 11.1 µM (inactive) | 6.21 µM | 5.05 µM (inactive) | 8.81 µM (inactive) | 2.34 µM (inactive) | 12 µM (inactive) | 3.66 µM (inactive) | 4.12 µM (inactive) | 20.5 µM (inactive) | 0.0454 µM (active) | 11.2 µM (inactive) | 3.56 µM (inactive) | 17.5 µM (inactive) | 3.33 µM (inactive) | 20.4 µM (inactive) | 12.5 µM (inactive) | 12.8 µM (inactive)
COc1ccc2nc3c(c(N)c2c1)C1CCC3C1(C)C (stereo not given) | > 100 µM (inactive) | 14.1 µM (inactive) | > 100 µM (inactive) | 30.6 µM (inactive) | 51.1 µM | 42.9 µM (inactive) | 42.9 µM (inactive) | 33 µM (inactive) | 25.3 µM (inactive) | 34.7 µM (inactive) | > 100 µM (inactive) | 41 µM (inactive) | 23 µM (inactive) | 72.1 µM (inactive) | 25.5 µM (inactive) | > 100 µM (inactive) | 34.8 µM (inactive) | 32.7 µM (inactive) | 18.9 µM (inactive) | 47.4 µM (inactive)
O=C1C(=Cc2cccc(Cl)c2)N=C(c2ccccc2)N1n1c(-c2ccccc2)nc2ccccc2c1=O | 23.7 µM (inactive) | 22.9 µM (inactive) | 52.2 µM (inactive) | 28.4 µM (inactive) | 49.3 µM | 35.2 µM (inactive) | 9.55 µM (inactive) | 36.8 µM (inactive) | 63.4 µM (inactive) | 16.4 µM (inactive) | 30.9 µM (inactive) | 67.6 µM (inactive) | 33.5 µM (inactive) | 32.4 µM (inactive) | 26.2 µM (inactive) | 38.1 µM (inactive) | 37 µM (inactive) | 95.5 µM (inactive) | 32.1 µM (inactive) | 34.4 µM (inactive)
